What was measured:
[1] = tested on: Acremonium chrysogenum wild-type (WT) ATCC 11550; assay: Fungal growth inhibition (drop-dilution, CD agar), WT strain; type: cell-based; conditions: for inhibition at 5000 µM: Hapsidospora chrysogena, ATCC11550, 336 h, 14 days after inoculation on CD medium
From the text: (§1) Two strains of Acremonium chrysogenum were used in this study: the wild-type (Brotzu) isolate ATCC 11550 (WT) and high-cephalosporin-yielding RNCM F-4081D (HY), derived from the WT [37]. The cultivation conditions were the same as previously described. The filamentous fungi were cultivated on agarized Czapek-Dox (CD) medium (30 g/L sucrose, 2 g/L NaNO3, 1 g/L K2HPO4, 0.5 g/L MgSO4×7 H2O, 0.5 g/L KCl, 0.01 g/L FeSO4×7 H2O, 20 g/L agar, pH 7.0–7.4). To determine the toxic effect of AO-Agm, APA, DFMA and DFMO on the growth of fungal cells the drop-dilution method was used with some modifications as described earlier. Cells were collected from agar slants and diluted with 0.9% NaCl solution up to OD600 = 0.5 (basic concentration), followed by serial tenfold dilutions with the same solution. […] The inoculated Petri dishes were incubated for 21 days at 26 °C. The inhibitory effects of the compounds were measured every three days after inoculation and evaluated by measuring the ratio of colony growth on agarized CD medium supplemented with AO-Agm, APA, DFMA, or DFMO to the growth in the control (agarized CD medium without any additions). The formula: growth inhibition % = [(Dc − Dt)/Dc] × 100, where Dc indicates the colony diameter in control set, and Dt indicates the colony diameter in the treatment set that was used to determine the percent of fungal growth inhibition. The data recorded were measured in triplicate and repeated at least twice.

E. coli ADC [2] = molecular target: T1, E. coli ADC (Escherichia coli, UniProt P21170); assay: E. coli ADC activity assay (HPLC of agmatine); type: biochemical; conditions: 0.1 mM PLP; 15 min preincubation; 0.15 mM L-Arg
T1 construct: The kinetic parameters determined for the partially purified biosynthetic ADC from E. coli; endogenous in cells; host or cells: E. coli DH5α (39-53% ammonium sulphate fraction of the lysate, desalted)
T1 sequence (P21170 1-658): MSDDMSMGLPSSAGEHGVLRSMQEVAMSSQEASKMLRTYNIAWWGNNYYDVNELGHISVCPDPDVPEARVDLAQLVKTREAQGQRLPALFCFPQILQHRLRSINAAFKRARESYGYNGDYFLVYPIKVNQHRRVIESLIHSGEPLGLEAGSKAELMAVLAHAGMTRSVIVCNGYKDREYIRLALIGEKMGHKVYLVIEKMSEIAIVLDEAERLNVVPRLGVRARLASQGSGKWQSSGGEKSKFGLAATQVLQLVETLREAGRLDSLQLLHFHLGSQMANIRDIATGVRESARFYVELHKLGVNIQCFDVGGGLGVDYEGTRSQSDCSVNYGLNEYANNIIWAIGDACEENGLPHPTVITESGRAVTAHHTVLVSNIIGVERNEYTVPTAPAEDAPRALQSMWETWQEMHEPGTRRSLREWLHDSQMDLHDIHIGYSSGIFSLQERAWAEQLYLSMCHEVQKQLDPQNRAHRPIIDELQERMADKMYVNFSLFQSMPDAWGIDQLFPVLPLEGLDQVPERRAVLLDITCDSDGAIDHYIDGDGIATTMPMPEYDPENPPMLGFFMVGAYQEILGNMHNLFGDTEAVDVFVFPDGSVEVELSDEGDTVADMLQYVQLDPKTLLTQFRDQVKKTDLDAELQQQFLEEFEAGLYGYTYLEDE
Description: (§2) The purification was performed using a modified procedure of earlier publication. E. coli strain DH5α was grown in Luria-Bertani broth at +37 °C with shaking (200 rpm) overnight. The cells were collected by centrifugation and the pellet was homogenized with Potter-Elvehjem in 10 volumes (w/v) of ice-cold 50 mM Tris-HCl pH 7.4, 1 mM DTT. The cell debris was removed by centrifugation at 12,000 g for 30 min at +4 °C. Solid (NH4)2SO4 was added to the supernatant, and the pellet precipitating between 39% and 53% saturation was separated. The precipitate was resuspended in ice-cold buffer containing 50 mM Tris-HCl pH 7.4 and 1 mM DTT and desalted by passage through Sephadex G-25 column (NAP-10 column, GE Healthcare). The protein concentration was measured with Bio-Rad protein reagent, and the partially purified enzyme preparation was mixed with 20% glycerol and aliquoted for storage at −80 °C.
[…] The ODC reaction mixture contained 50 mM Tris-HCl pH 7.8, 1 mM EDTA, 2.4 mM DTT, 0.1 mM PLP and 20 μg of partially purified enzyme preparation. The mixtures were either preincubated or not preincubated for 15 min at +40 °C in the presence of the inhibitor, after which the reaction was started by the addition of 18 μL of 10× substrate (L-Arg for ADC and L-Orn for ODC). After incubation for 30 min (ADC) or 20 min (ODC) at +40 °C, 20 μL of 50% sulphosalicylic acid containing 50 μM diaminoheptane (internal standard) was added and the samples were analyzed for the content of agmatine (ADC) and Put (ODC) with HPLC as described previously. The kinetic parameters and IC50 values were determined with the aid of GraphPad Prism version 5.03 using nonlinear regression analysis.

[3] = tested on: Acremonium chrysogenum high-cephalosporin-yielding (HY) RNCM F-4081D; assay: Fungal growth inhibition (drop-dilution, CD agar), HY strain; type: cell-based; conditions: for inhibition at 5000 µM: Hapsidospora chrysogena, 336 h, read-out: Growth inhibition
From the text: as §1

E. coli ODC = E. coli ODC (Escherichia coli, UniProt P21169); assay: E. coli ODC activity assay (HPLC of Put); type: biochemical
Description: as §2
The ADC reaction mixture contained 50 mM Tris-HCl pH 7.8, 4 mM MgCl2, 1 mM DTT, 1.0 or 0.1 mM PLP and 20 μg of partially purified enzyme preparation in a total volume of 162 μL. The ODC reaction mixture contained 50 mM Tris-HCl pH 7.8, 1 mM EDTA, 2.4 mM DTT, 0.1 mM PLP and 20 μg of partially purified enzyme preparation. […] After incubation for 30 min (ADC) or 20 min (ODC) at +40 °C, 20 μL of 50% sulphosalicylic acid containing 50 μM diaminoheptane (internal standard) was added and the samples were analyzed for the content of agmatine (ADC) and Put (ODC) with HPLC as described previously. The kinetic parameters and IC50 values were determined with the aid of GraphPad Prism version 5.03 using nonlinear regression analysis.

A. chrysogenum HY strain = assay: Polyamine content in the fungi, HY strain; type: cell-based, Acremonium chrysogenum; conditions: 24 h
Description: (§3) WT and HY A. chrysogenum strains were preliminarily grown in tubes on CD medium slants for 7 days at 25 °C and used for the inoculation of 30 mL of a liquid CD medium (seed medium). The strains were cultivated on CD medium for 48 h at 26 °C and inoculated into ten volumes of CD medium. The fermentation was carried out for 120 h at 26 °C in 250-mL Erlenmeyer flasks on a CERTOMAT BS-1 shaker (Sartorius, Germany) at 230 rpm, as described earlier. After 24 h of culture, 1 mL aliquots were removed, fungi were separated by centrifugation (15 min, 14,000 g) and washed with H2O (3 × 2 mL). The washed biomass was subjected to three cycles of freezing (−80 °C) and thawing at 20 °C in 5% perchloric acid. After the final thaw, samples were vortexed for 2 min and centrifuged for 10 min at 14,000 g. The supernatant was used for the determination of polyamine content.
(§4) The dry biomass was prepared from 2 mL aliquots of fermentation media after 24 h. The biomass was separated by centrifugation (15 min, 14,000 g), the precipitated fungi cells were washed in triplicate with 10 volumes of H2O, dried at 80 °C for 96 h to a constant weight and used for normalization of polyamine content in the fungi.
(§5) Polyamines were determined by HPLC from 50 µL of the 5% perchloric acid supernatant using a precolumn modification with Dans-Cl following mostly the published protocol. 1,7-Diaminoheptane was used as an internal standard and proline applied to quench the dansylation reaction. The solution of the dansylated polyamines in toluene (2 μL) was mixed with 50% aq. ethanol (13 µL) and applied on a reversed phase column (Cosmosil C18-MS-II, 250 × 4.6 mm, 5 µm). The column was eluted (1 mL/min) with the gradient: 0 min—0% B; 4 min—65% B; 17 min—65% B; 19 min—100% B, 23 min—100% B, 25 min—0% B; 30 min—0% B. System A—40% acetonitrile, 60% H2O. System B—80% acetonitrile, 20% tetrahydrofuran. Column temperature 40 °C, pressure 80–120 bar, fluorescent detection: λex 340 nm, λem 530 nm (detector RF-20A, Shimadzu Scientific Instrument, Columbia, MD, USA).

A. chrysogenum WT strain = assay: Polyamine content in the fungi, WT strain; type: cell-based, Acremonium chrysogenum; conditions: 24 h
Description: as §3, §4, §5

E. coli ADC [4] = molecular target: T1, E. coli ADC; design: method as in PMID 4571773; conditions: pH 8.4; cited from earlier work
[5] = tested on: DU145 prostate cancer cells; assay: Growth of DU145 cells; type: cell-based; conditions: SC (1 mM) alone; 3 days
Description: (§6) DU145 prostate cancer cells were cultured in high-glucose Dulbecco’s Modified Eagle’s Medium supplemented with 10% heat-inactivated fetal bovine serum, 2 mM L-glutamine and 50 μg/mL gentamycin (all from Sigma-Aldrich). The cells were plated on 6-well plates and allowed to attach overnight. […] The cells were harvested, and the pellet was mixed with 150 μL of 5% sulphosalicylic acid containing 5 μM diaminoheptane (internal standard). Polyamine analysis was carried out as described previously.

[6] = tested on: DU145 prostate cancer cells; assay: Intracellular polyamine pools of DU145 cells; type: cell-based; conditions: SC (1 mM) alone; 3 days
Description: as §6

[7] = substrate: N=C(N)NCCC[C@H](N)C(=O)O; assay: E. coli ADC activity assay (HPLC of agmatine); type: biochemical; conditions: other: partially purified ADC, pH 7.8
Description: as §2
[…] After incubation for 30 min (ADC) or 20 min (ODC) at +40 °C, 20 μL of 50% sulphosalicylic acid containing 50 μM diaminoheptane (internal standard) was added and the samples were analyzed for the content of agmatine (ADC) and Put (ODC) with HPLC as described previously. The kinetic parameters and IC50 values were determined with the aid of GraphPad Prism version 5.03 using nonlinear regression analysis.

E. coli ODC, sequence (P21169 whole entry): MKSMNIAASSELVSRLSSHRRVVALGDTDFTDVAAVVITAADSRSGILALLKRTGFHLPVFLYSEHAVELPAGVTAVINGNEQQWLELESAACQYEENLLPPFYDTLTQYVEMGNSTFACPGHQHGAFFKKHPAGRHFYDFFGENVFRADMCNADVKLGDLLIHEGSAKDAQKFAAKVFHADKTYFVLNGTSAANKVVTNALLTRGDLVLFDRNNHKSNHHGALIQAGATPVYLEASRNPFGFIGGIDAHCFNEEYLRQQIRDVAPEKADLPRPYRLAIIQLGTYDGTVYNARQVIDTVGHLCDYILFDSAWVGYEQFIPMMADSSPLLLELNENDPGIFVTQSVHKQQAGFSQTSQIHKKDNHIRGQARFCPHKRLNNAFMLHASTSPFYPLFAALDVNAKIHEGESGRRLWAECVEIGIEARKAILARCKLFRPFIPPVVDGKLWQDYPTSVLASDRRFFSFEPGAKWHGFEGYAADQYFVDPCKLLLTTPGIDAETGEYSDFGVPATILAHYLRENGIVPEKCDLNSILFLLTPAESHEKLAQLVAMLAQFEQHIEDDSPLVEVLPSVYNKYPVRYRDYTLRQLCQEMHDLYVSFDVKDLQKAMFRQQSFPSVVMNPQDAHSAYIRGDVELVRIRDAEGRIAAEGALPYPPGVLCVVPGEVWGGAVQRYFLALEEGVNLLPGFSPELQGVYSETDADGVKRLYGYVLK

N=C(N)NCCCC(N)(C(=O)O)C(F)F (racemic) [DFMA, D,L-α-(difluoromethyl)arginine]
inhibition at 5000 µM ([1]; 5 mM inhibitor): 7% | IC50 (E. coli ADC [2]): 10 ± 1 µM | inhibition at 5000 µM [3]: 13%

NCCC[C@](N)(C(=O)O)C(F)F [DFMO, α-(Difluoromethyl)ornithine]
Growth inhibition compared with 1 mM APA ([1]; 1 mM inhibitor): significantly less effective | Growth of WT strain ([1]; 5 mM inhibitor): completely inhibited | Effect of 0.5 mM Spd on the growth arrest caused by the inhibitor ([1]; 5 mM inhibitor + 0.5 mM Spd): reversed the growth arrest | inhibition at 5000 µM ([1]; 5 mM inhibitor): 100% | Potency to inhibit E. coli ODC (E. coli ODC; 0.1 mM PLP, 15 min preincubation, 7 mM L-Orn): very low potency | Put (A. chrysogenum HY strain; 5 mM DFMO + 0.5 mM Spd): <10 pmol/mg Dry Weight | Spd (A. chrysogenum HY strain; 5 mM DFMO + 0.5 mM Spd): 46,630 ± 6700 pmol/mg Dry Weight | Spm (A. chrysogenum HY strain; 5 mM DFMO + 0.5 mM Spd): 340 ± 56 pmol/mg Dry Weight | Put (A. chrysogenum HY strain; 5 mM DFMO): <10 pmol/mg Dry Weight | Spd (A. chrysogenum HY strain; 5 mM DFMO): 410 ± 60 pmol/mg Dry Weight | Spm (A. chrysogenum HY strain; 5 mM DFMO): 424 ± 39 pmol/mg Dry Weight | Growth inhibition compared with 5 mM ([3]; HY strain, 1 mM inhibitor): much less effective | inhibition at 5000 µM [3]: 41% | Put (A. chrysogenum WT strain; 5 mM DFMO + 0.5 mM Spd): <10 pmol/mg Dry Weight | Spd (A. chrysogenum WT strain; 5 mM DFMO + 0.5 mM Spd): 11,530 ± 3690 pmol/mg Dry Weight | Spm (A. chrysogenum WT strain; 5 mM DFMO + 0.5 mM Spd): 90 ± 30 pmol/mg Dry Weight | Put (A. chrysogenum WT strain; 5 mM DFMO): <10 pmol/mg Dry Weight | Spd (A. chrysogenum WT strain; 5 mM DFMO): 140 ± 10 pmol/mg Dry Weight | Spm (A. chrysogenum WT strain; 5 mM DFMO): 170 ± 20 pmol/mg Dry Weight

N=C(N)NCCC[C@H](N)C(=O)O [L-Arg, L-arginine]
Km (E. coli ADC [4]): 30 µM

NCCC[C@H](N)C(=O)O [L-Orn, L-ornithine]
Vmax (E. coli ODC; partially purified ODC): 709 ± 7 nmol/h/mg protein

NNC(N)=O [SC, semicarbazide, reference compound]
Growth [5]: 1.00 ± 0.04 Fold | Put [6]: 1258 ± 157 pmol/mg Protein | Spd [6]: 6483 ± 282 pmol/mg Protein | Spm [6]: 3582 ± 146 pmol/mg Protein

NCCCCNCCCN [Spd, spermidine]
Put (A. chrysogenum HY strain; 0.5 mM Spd): <10 pmol/mg Dry Weight | Spd (A. chrysogenum HY strain; 0.5 mM Spd): 39,180 ± 4840 pmol/mg Dry Weight | Spm (A. chrysogenum HY strain; 0.5 mM Spd): 330 ± 10 pmol/mg Dry Weight | Put (A. chrysogenum WT strain; 0.5 mM Spd): <10 pmol/mg Dry Weight | Spd (A. chrysogenum WT strain; 0.5 mM Spd): 12,200 ± 2180 pmol/mg Dry Weight | Spm (A. chrysogenum WT strain; 0.5 mM Spd): 70 ± 10 pmol/mg Dry Weight

B1: E. coli ADC (Escherichia coli K-12) (protein)
chain: T1 sequence (P21170 1-658)
notes: The kinetic parameters determined for the partially purified biosynthetic ADC from E. coli; endogenous in cells; host or cells: E. coli DH5α (39-53% ammonium sulphate fraction of the lysate, desalted)
Km [7]: 158 ± 5 µM | Vmax [7]: 546 ± 5 nmol/h/mg protein
